{"source": "patent US20030152562A1", "about": "“Vitro micro-organs, and uses related thereto” (Yissum Research Development Company of the Hebrew …, priority 2001, published 2003)", "type_in_all_cases": "cell-based", "key": {"epidermal cells": {"test_system": "epidermal cells", "test": "Inhibition of proliferation of epidermal cells"}, "New born mouse skin": {"test_system": "New born mouse skin", "test": "Hair shaft growth in new born mouse skin micro-organ cultures", "conditions": "skin from 30 hr-old mouse, 3 days in culture, 1 ng/ml EGF", "method": "New born mouse skin was obtained after surgery, cleaned of underlying fat tissue and cut into 0.4×5 cm flaps, which were then transversely sectioned, using a tissue chopper or other suitable cutting devise into 300 μm sections. The micro-organs were placed in microplates in DMEM in the absence of serum under 5% CO2 at 37° C. under constant shaking for periods of 1 to 14 days. Certain of the micro-organ explants were contacted with a growth factor, e.g., FGF, which was added to the culture media. The medium was changed every 2 days.\nNew born “hairless” skin can be induced to produce hair shafts when grown in MC cultures."}, "guinea-pig skin cultures": {"test_system": "guinea-pig skin cultures", "test": "BrdU labeling assay of cell proliferation (DNA synthesis) in skin micro-organ cultures", "conditions": "FIG. 12", "method": "Fresh skin was obtained after surgery, cleaned from underlying fat tissue and cut into 0.4×5 cm flaps, which are then transversely sectioned, using a tissue chopper or other suitable cutting means into 300 μm sections under sterile conditions so that the final tissue segments had dimensions of 4 mm in width and 0.3 mm in thickness (see FIG. 1). These micrograns were placed in a 24-well microplate in 400 μl of DMEM in the absence of serum under 5% CO2 at 37° C., under constant shaking at 12 rpm for periods of one to eight days. Twenty micro-explants were grown per well.\nMicro-organ cultures were prepared according to Example I and proliferation of the cells was measured by analyzing the amount of DNA synthesis as follows. […]\nThe cultures were prepared and maintained in defined medium in similar growth conditions as described in Example I. Control samples were analyzed by immunocytochemistry to determine that the micro-organ culture was maintained in a manner that was similar to that occurring in vivo.\nDuplicated samples of skin micro-cultures were treated with TGF-β at 2.5 ng/ml. A quantitative analysis of the number of BrdU labeled cells/explant was performed according to Example II."}}, "note": "“Also recorded” adds a separate entry of the source.", "data": [{"substance": "Activin", "values": [{"measurement": "effect on proliferation of epidermal cells", "setting": "epidermal cells", "value": "inhibit proliferation of epidermal cells"}]}, {"substance": "EGF: epidermal growth factor added to culture medium (NSDSECPLSHDGYCLHDGVCMYIEALDKYACNCVVGYIGERCQYRDLKWWELR; UniProt P01133 971-1023, looked up)", "values": [{"measurement": "hair shaft development in explants", "setting": "New born mouse skin", "value": "development of hair shafts in the explants"}]}, {"substance": "TGF-β", "values": [{"measurement": "effect on cell proliferation / mitogenesis in skin micro-organ cultures", "setting": "guinea-pig skin cultures; 2.5 ng/ml, guinea-pig skin cultures", "value": "inhibitor of cell proliferation; also recorded: inhibition of mitogenesis"}, {"measurement": "inhibition of DNA synthesis (number of BrdU labeled cells/explant) compared with controls", "setting": "guinea-pig skin cultures; TGF-β at 2.5 ng/ml, skin micro-cultures in defined medium", "value": "Greater than 90%"}]}]}
